# Columns and labels:
# [1] = target: T1, Acetyl cholinesterase (Electron-eel Type, VI-S) (Electrophorus electricus, UniProt O42275); test: biochemical; type: biochemical
# T1 construct: purchased Sigma-Aldrich, Germany
# Protocol: Ellman assay was used to evaluate E. umbellata fruit extracts and isolated compounds for their anticholinesterase potentials. About 205 μL extract/compound solutions and 5 μL of AChE (0.03 U/mL)/BChE (0.01 U/mL) along with catalyst DTNB (5 μL) were taken in a cuvette and kept at 30 °C in hot water bath for 15 min. […] As a negative control solution all the above mentioned components except extracts and isolated compounds were mixed in the mentioned order.
# V is inhibitor dependent rate of reaction while, Vmax is inhibitor independent rate of reaction.
# [2] = Ex vivo brain DPPH free radicals scavenging activity; type: in vivo, mice
# Protocol: (§1) The frontal cortex (FC) and hippocampus (HC) were dissected out in ice cold 0.1 M phosphate buffer saline (pH 8.0). The tissues were weighed and 20 mg tissue/mL homogenate of brain samples was prepared in phosphate buffer (pH 8.0). The homogenates were centrifuged at 10,000 rpm for 10 min at 4 °C, and the resulting supernatant was used for the estimation of anti-cholinesterase activity following Ellman’s and antioxidants assays.
# mice = details: Swiss albino, mouse, in vivo, po, 72 h
# Protocol: All animals were then treated orally with different doses of CHF. […] Immediately after dosing, the mice were observed continuously for 4 h for symptoms of toxicity such as motor activity, convulsions, muscle spasm, tremors, sedation, lacrimation, hypnosis, diarrhoea, salivation, and loss of righting reflex. Mice were then kept under observation up to 72 h for any mortality. The CHF. […] Therefore, according to OECD guidelines, CHF.
# [3] = system: scopolamine-induced cognitive impairment in mice; test: Novel object recognition test, scopolamine-induced amnesia; type: in vivo
# Protocol: (§2) After the acclimatization period, in scopolamine-induced amnesia test the Albino male mice were randomly divided into six groups (n = 6) to study the effect of CHF. […] The doses of tested solutions of CHF. […] The treatments were continued for 8 days. In the Y-maze and Novel object recognition tests, scopolamine (1 mg/kg, i.p.) was given to the different groups only on the 8th day, 30 min after the respective treatments, to induce cognitive deficit in mice. One hour after administration of the drugs all animals were subjected to Y-maze and Novel object recognition test following standard procedure.
# The detail methodology published, was followed while performing the novel object recognition (NORT) test. NORT consisting of habituation, sample, and test phases. On the day before test, mice were allowed to explore the box (without any object) for 2 min. On the day of test after habituation the sample phase was carried out 60 min after the last treatment on the 8th day. In sample phase each mouse was placed in an open field with two identical objects (plastic ball) for 5 min. The mouse was then returned to its home cage. The apparatus was comprised of a white coloured plywood box (40 cm × 40 cm × 66 cm) with a network floors that could be effortlessly cleaned (with 70%v/v ethanol) after every trial. The apparatus was illuminated by a 60 W light suspended 50 cm over the crate. The arena and objects were cleaned with 70% v/v ethanol between trials to avoid olfactory cues. For short-term memory, the test phase was performed 5 min after the sample phase. In the test phase, each mouse was placed again in the open field in which one of the identical objects had been replaced with a novel object (plastic square). The location of the object was counterbalanced so that one half of the mice in each group saw the novel object on the left side of the box arena, and the other half saw the novel object on the right side of the box arena to eliminate bias of sides. NORT can also be used for encoding and retrieval of spatial memory (long-term memory). A wash-out period of 5 days was allowed before the NORT to assess long-term memory in mice. The procedure was the same as that for short-term memory except that mice were presented in the test phase 24 h after the sample phase exposure. The time spent exploring each object in each phase was recorded manually using a stopwatch. A mouse was scored as exploring when its head was oriented towards the object within a distance of 2 cm or when the nose was in contact with the object. Parameters including the time (in seconds) spent exploring familiar (F) object, time (in seconds) spent exploring the novel (N) object, and total time (in seconds) spent exploring both objects (N + F) were measured separately.
# [4] = system: scopolamine-induced cognitive impairment in mice; test: Y-maze test, scopolamine-induced amnesia; type: in vivo
# Protocol: as §2
# The Y-Maze test was designed to evaluate the short term memory in experimental mice using reported procedure. Y-maze apparatus is Y shaped with three arms of equivalent size, labelled as A, B, and C. Each arm was 20 cm long, 6 cm wide and 15.5 cm high and was oriented at an angle of 120° from the other two. For each animal the Y maze testing was carried out for 5 min. Mice were placed in one arm, and the order and number of arm entries were recorded. An arm entry was considered to be complete when the hind paws of the mice was completely inside a given arm while alternation was defined as consecutive entries by a mouse into the three different arms. The arena was cleaned using 70% v/v ethanol between each trial to avoid olfactory cues. The escape latency (second) on day 1–5 were recorded for all animals. At the end of 5th day, the spontaneous alteration behavior study was conducted. In spontaneous alteration study, each animal was placed at the center of the Y-Maze apparatus and allowed to move freely through the maze. The series of arm entries were visually recorded. To start behavioral test the mice was set in one arm and recorded the number of arm entries, same arm returns (SAR), and alternate arm returns (AAR) were measured. Percent spontaneous alternation performance (SAP) was calculated by the following formula: 5 %SAP=Active alterationstotal alterations/Possible alterationstotalarmentries−2x100
# AChE = target: T2, AChE (Mus musculus, UniProt P21836); type: in vivo; details: ex vivo, NORT animals, vs scopolamine treated group
# T2 construct: supernatants were collected from homogenized part of brain tissues; from tissue; host or cells: mouse frontal cortex and hippocampus homogenate supernatant
# T2 sequence (P21836 32-614): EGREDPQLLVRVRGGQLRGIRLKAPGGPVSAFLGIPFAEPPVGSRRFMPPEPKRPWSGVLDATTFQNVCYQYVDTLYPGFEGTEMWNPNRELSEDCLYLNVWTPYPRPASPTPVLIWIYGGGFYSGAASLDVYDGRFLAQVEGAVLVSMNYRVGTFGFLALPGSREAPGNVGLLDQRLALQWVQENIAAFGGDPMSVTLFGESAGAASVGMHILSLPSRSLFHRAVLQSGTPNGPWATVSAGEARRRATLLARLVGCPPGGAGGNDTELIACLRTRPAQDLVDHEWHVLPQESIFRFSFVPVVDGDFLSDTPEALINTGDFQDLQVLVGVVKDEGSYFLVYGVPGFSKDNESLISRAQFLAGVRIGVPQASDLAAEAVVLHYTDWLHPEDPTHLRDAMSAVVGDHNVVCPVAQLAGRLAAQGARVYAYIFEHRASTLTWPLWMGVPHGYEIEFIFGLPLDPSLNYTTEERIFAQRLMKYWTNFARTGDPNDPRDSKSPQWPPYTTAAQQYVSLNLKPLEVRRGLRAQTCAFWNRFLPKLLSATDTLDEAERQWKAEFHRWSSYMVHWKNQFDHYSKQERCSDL
# Protocol: as §1
# (§3) Ex vivo analysis of cholinesterase inhibitory potentials was also measured to check the cholinergic hypo function in animal model using the isolated compound CGA and CHF extract.
# BChE = target: T3, BChE (Mus musculus, UniProt Q03311); type: in vivo; details: ex vivo, NORT animals, vs scopolamine treated group
# T3 construct: supernatants were collected from homogenized part of brain tissues; from tissue; host or cells: mouse frontal cortex and hippocampus homogenate supernatant
# T3 sequence (Q03311 30-603): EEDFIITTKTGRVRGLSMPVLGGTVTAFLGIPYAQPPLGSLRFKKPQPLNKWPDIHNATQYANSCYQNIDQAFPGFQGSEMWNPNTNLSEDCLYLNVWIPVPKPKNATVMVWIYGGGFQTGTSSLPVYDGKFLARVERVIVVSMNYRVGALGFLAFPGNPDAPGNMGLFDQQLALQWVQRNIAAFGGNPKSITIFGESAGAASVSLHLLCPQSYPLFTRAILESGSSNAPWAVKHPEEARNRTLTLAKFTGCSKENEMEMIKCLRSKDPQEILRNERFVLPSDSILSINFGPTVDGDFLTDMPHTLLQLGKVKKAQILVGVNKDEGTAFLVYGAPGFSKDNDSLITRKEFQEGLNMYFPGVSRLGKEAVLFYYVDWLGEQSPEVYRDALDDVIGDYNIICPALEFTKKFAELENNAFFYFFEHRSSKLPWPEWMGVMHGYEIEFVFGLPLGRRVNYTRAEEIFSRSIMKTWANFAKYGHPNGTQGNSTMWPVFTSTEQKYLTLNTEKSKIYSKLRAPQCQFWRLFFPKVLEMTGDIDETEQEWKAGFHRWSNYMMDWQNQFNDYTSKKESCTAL
# Protocol: as §1, §3
# [5] = vs scopolamine (1 mg/kg) group, CHF. Ext 200 mg/kg, CGA 10 and 30 mg/kg, donepezil 2 mg/kg
# T1 sequence (O42275 24-633): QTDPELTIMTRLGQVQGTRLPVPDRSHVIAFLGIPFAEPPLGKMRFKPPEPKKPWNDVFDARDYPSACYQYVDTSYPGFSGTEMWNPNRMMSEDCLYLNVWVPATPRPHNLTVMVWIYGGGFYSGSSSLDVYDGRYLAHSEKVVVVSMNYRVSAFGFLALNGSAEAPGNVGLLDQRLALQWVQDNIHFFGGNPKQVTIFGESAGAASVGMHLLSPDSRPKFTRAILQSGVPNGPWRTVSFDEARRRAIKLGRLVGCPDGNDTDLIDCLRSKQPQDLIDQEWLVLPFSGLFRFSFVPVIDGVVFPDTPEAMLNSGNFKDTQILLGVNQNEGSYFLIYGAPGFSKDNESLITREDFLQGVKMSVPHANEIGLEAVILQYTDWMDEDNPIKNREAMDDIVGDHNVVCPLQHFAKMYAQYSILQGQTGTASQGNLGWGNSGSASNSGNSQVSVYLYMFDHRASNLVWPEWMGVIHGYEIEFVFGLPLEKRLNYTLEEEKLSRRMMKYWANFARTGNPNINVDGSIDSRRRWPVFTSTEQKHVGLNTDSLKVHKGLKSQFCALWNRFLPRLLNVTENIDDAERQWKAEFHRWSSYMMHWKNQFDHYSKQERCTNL
smiles,measurement,setting,value
"O=C(/C=C/c1ccc(O)c(O)c1)O[C@@H]1C[C@](O)(C(=O)O)C[C@@H](O)[C@H]1O [Compound-I, Chlorogenic acid]",% AChE Mean ± SEM,[1]; 31.05 µg/mL,50±0.4^ ns %
same,% AChE Mean ± SEM,[1]; 62.5 µg/mL,59±0.3 %
same,% AChE Mean ± SEM,[1]; 125 µg/mL,68±0.4 %
same,% AChE Mean ± SEM,[1]; 250 µg/mL,76±0.5 %
same,% AChE Mean ± SEM,[1]; 500 µg/mL,82±0.1 %
same,% AChE Mean ± SEM,"[1]; 1000 µg/mL, listed as Compound -I",90±0.2^ns %
same,% AChE Mean ± SEM,"[1]; 1000 µg/mL, listed as Compound I",90 ± 0.2%
same,IC50,"[1]; linear regression, read-out: AChE IC50 (converted)",87.5 µM
same,% anti-radicals activities (DPPH) in cortex,"[2]; NORT animals, cortex",51.43 ± 2.88%
same,% anti-radicals activities (DPPH) in hippocampus,"[2]; NORT animals, hippocampus",65.36 ± 1.45%
same,% DPPH inhibition potential in cortex,"[2]; Y-maze test animals, frontal cortex",47.85 ± 2.11%
same,% DPPH inhibition potential in hippocampus,"[2]; Y-maze test animals, hippocampus",44.12 ± 1.77%
same,dose range that remained safe and nontoxic,mice,up to 300 mg/kg
same,"time for exploration of novel object, test phase, long term memory","[3]; CHF. Ext 100 & 200 mg/kg, CGA 10 & 30 mg/kg, donepezil 2 mg/kg","significant (*p < 0.05, **p < 0.01) increase"
same,"%DI, long term memory","[3]; CHF. Ext 100, 200 mg/kg, CGA 10 & 30 mg/kg, donepezil 2 mg/kg","significant (*p < 0.05, **p < 0.01) increase"
same,"time with novel object, test phase, short term memory","[3]; vs scopolamine group (*p < 0.05, **p < 0.01), CHF. Ext 50, 100, 200 mg/kg, CGA 10 and 30 mg/kg, donepezil 2 mg/kg",more time with novel object
same,"time for exploration of two objects, sample phase, short term memory",[3]; vs scopolamine treated group,no significant difference
same,"total time spent exploring the two identical objects, sample phase, long term memory",[3]; vs scopolamine treated group,no significant differences
same,escape latency,"[4]; day 1-5, vs scopolamine treated group",significant decline (p < 0.001)
same,total numbers of entries into arms,[4]; treated groups compared to control group,non-significant (p > 0.05) decrease
same,percentage of alternate arm returns,[4]; [5],significant (*p<0.05; **p < 0.01) increase
same,percentage of same arm returns,[4]; [5],significant (p < 0.01) reduction
same,% AChE activity in cortex and hippocampus,AChE,significantly (***p < 0.001; **p < 0.01) lower
same,% BChE activity in cortex and hippocampus,BChE,significantly (***p < 0.001; **p < 0.01) lower

# From publication PMC7216467, “Evaluation of neuroprotective and anti-amnesic effects of Elaeagnus umbellata Thunb. On scopolamine-induced memory impairment in mice” (BMC Complementary Medicine and Therapies, 2020)
